Measurements reported in patent US20260297105A1, “RAF-MEK PROTEIN COMPLEX MODULATORS AND METHODS OF USE THEREOF” (GANDEEVA THERAPEUTICS, INC., priority 2023, published 2026).
Where two headings read alike, the source gives them in different places.

Key:
[1] = molecular target: T1, MEK1 (Homo sapiens, UniProt Q02750); experiment: MEK1 kinase cascade assay (ADP-Glo), inhibition of MEK1 kinase activity; format: biochemical; settings: 25 nM BRAF, 6.25 nM MEK1, 0.5 μM ERK, 1 mM ATP; 20 min preincubation, 1 hr at 25° C.; read-out: BRAF ADP Glo kinase assay V3 (IC50)
T1 construct: purchased SignalChem M02-14H
Description: (§1) Protein expression and purification: BRAF (445-723) with N-term His-tag and C-term StrepII tag was expressed using the Expi293 system (ThermoFisher) and purified using Strep-Tactin® XT-Superflow (IBA) chromatography. ERK1 (full-length) with N-term His-tag was expressed in Rosetta DE3 cells (Millipore) and purified using HisTrap HP (Cytiva) and Superdex 200 (Cytiva) column chromatography. Full-length MEK1 for TR-FRET assays with N-term His-tag was expressed in BL21DE3 cells (ThermoFisher) and purified using HisTrap HP (Cytiva) and Superdex 200 (Cytiva) column chromatography.
Efficacy of exemplary compounds in inhibition of MEK1 kinase activity: The effect of compound MEK1 inhibition was evaluated using an ADP detection system for kinases, such as the ADP-Glo assay (Promega). The MEK1 kinase cascade assay consisted of 9 μL reaction volumes in 384-well white, opaque Optiplates (PerkinElmer). Compounds were prepared from DMSO stocks in assay buffer (10 mM HEPES pH 7.5, 5 mM MgCl2, 2 mM CHAPS, and 1 mM DTT) and preincubated with 25 nM BRAF for 20 mins at 25° C. prior to addition of 6.25 nM MEK1/0.5 μM ERK/1 mM ATP premix to initiate the kinase reaction. Both BRAF and ERK1 were produced in-house, and MEK1 was purchased from SignalChem (M02-14H). DMSO was kept constant at a final concentration of 1%. After a 1 hr incubation at 25° C., conversion of ATP to ADP was detected using ADP-Glo™ reagents according to the manufacturer's protocol. Luminescence was measured using a CLARIOstar microplate reader (BMG). Percent (%) Inhibition was calculated by normalizing to DMSO control (max) and 1 μM Trametinib (min). % inhibition as a function of compound concentration from 2 replicate wells was fit with a 4-parameter logistic curve equation using GraphPad Prism or CDD Vault to derive IC50 values.
(§2) In this table, for the BRAF ADP Glo kinase assay, “A” indicates IC50 of less than 5 nM; “B” indicates IC50 of between 5 nM to 50 nM; and “C” indicates IC50 of between 50 nM to 500 nM. “D” indicates IC50 of greater than 500 nM. For the BRAF-MEK TR-FRET assay, “A” indicates EC50 of less than 50 nM; “B” indicates EC50 of between 50 nM to 200 nM; and “C” indicates EC50 of between 200 nM to 1 μM. “D′” indicates EC50 of greater than 1 μM. For the AlphaLisa P-ERK assay, “A” indicates IC50 of less than 1 nM; “B” indicates IC50 of between 1 nM to 10 nM; and “C” indicates IC50 of between 10 nM to 100 nM. “D” indicates IC50 of greater than 100 nM. For the cell viability assay, “A” indicates IC50 of less than 1 nM; “B” indicates IC50 of between 1 nM to 10 nM; and “C” indicates IC50 of between 10 nM to 100 nM. “D” indicates IC50 of greater than 100 nM.

[2] = test system: BRAF-MEK1; experiment: BRAF-MEK TR-FRET assay, stabilization of MEK1 and BRAF interaction; format: binding; settings: 4 nM BRAF, 10 nM MEK, 100 μM ATP, 1 hr at 25° C., read-out: BRAF-MEK TR-FRET Assay (EC50, fold stabilization)
Description: as §1
Efficacy of exemplary compounds in stabilization of MEK1 and BRAF interaction: Compound stabilization of BRAF-MEK interaction was evaluated using TR-FRET (Time Resolved Fluorescence Energy Transfer). The FRET assay consisted of His-tagged MEK1 (produced in-house), GST-tagged BRAF (SignalChem, B08-11G), Anti His-Tb Cryptate donor, and Anti GST-XL665 acceptor fluorophores (PerkinElmer) to generate FRET signal upon BRAF-MEK1 binding. Compounds were prepared from DMSO stocks in assay buffer (50 mM Tris pH 7.5, 150 mM NaCl, 1 mM DTT, 0.05% Tween-20, 5 mM MgCl2, and 100 μM ATP) and incubated with 4 nM BRAF and 10 nM MEK for 1 hr at 25° C. 1 ng Anti His-Tb Cryptate/20 ng Anti GST-XL665 premix was then added and incubated for 1 hr at 25° C. TR-FRET was measured using Cytation5 microplate reader (Agilent) using Ex/Em=340/620 nm and Ex/Em=340/665 nm to determine the FRET ratio. Fold stabilization was calculated as FRET signal of treated well/DMSO control. Fold stabilization as a function of compound concentration from 2 replicate wells was fit with a 4-parameter logistic curve equation using GraphPad Prism or CDD Vault to derive EC50 values.
as §2

T1 sequence (Q02750 whole entry): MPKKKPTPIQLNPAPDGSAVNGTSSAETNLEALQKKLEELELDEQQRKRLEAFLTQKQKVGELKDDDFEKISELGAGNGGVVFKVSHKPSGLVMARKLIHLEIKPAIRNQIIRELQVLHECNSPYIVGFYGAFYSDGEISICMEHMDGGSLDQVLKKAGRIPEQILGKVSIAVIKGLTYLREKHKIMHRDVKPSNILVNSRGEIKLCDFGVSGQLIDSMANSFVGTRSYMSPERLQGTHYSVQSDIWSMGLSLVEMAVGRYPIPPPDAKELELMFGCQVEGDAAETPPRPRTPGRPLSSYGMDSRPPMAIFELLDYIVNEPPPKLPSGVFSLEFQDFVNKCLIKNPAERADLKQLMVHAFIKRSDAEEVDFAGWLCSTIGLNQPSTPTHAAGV
T1 sequence (P15056 445-723 partner limits assumed): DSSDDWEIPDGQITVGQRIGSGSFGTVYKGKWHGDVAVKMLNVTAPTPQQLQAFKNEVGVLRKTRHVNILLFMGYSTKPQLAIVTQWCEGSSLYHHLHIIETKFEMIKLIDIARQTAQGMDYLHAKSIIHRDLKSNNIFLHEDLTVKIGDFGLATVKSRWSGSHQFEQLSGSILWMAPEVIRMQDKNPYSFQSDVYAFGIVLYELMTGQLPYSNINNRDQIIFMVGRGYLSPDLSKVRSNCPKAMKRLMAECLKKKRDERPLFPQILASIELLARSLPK

SMILES	IC50 [1] [nM]	EC50 ([2]; 60 min) [nM]	EC50 [2] [nM]
CNS(=O)(=O)Nc1nccc(CN2C(=O)Oc3cc(Oc4cccnn4)cnc3[C@H]2C)c1F (stereo in doubt) [Compound 192, 3-{[3-fluoro-2-(methylaminosulfonylamino)-4 pyridyl]methyl}-4-methyl-7-(3-pyridazinyloxy)-3,4-dihydro-2H-1-oxa-3,5 diazanaphthalen-2-one]	5 to 50	200 to 1000	
CN(C)S(=O)(=O)Nc1nccc(CN2C(=O)Oc3cc(Oc4ncco4)ccc3C23CCC3)c1F [Compound 179, 3-{[2-(dimethylaminosulfonylamino)-3-fluoro-4-pyridyl]methyl}-7-(1,3-oxazol-2-yloxy)-2H,3H-spiro[1,3-benzoxazine-4,1′-cyclobutan]-2-one]	5 to 50		200 to 1000
CNS(=O)(=O)Nc1cccc(CN2Cc3cc(F)c(Oc4ncccn4)cc3OC2=O)c1F [Compound 83, 6-fluoro-3-{[2-fluoro-3-(methylaminosulfonylamino)phenyl]methyl}-7-(2-pyrimidinyloxy)-3,4-dihydro-2H-1,3-benzoxazin-2-one]	5 to 50		200 to 1000
CNS(=O)(=O)Nc1cc(F)cc(CN2C(=O)Oc3cc(Oc4cccnn4)ccc3C23CCC3)c1F [Compound 194, 3-{[2,5-difluoro-3-(methylaminosulfonylamino)phenyl]methyl}-7-(3-pyridazinyloxy)-2H,3H-spiro[1,3-benzoxazine-4,1′-cyclobutan]-2-one]	5 to 50		50 to 200
O=C1Oc2c(ccc(Oc3ncco3)c2F)C2(CCC2)N1Cc1ccnc(NS(=O)(=O)C2CC2)c1F [Compound 183, (cyclopropylsulfonyl)[3-fluoro-4-({8-fluoro-7-(1,3-oxazol-2-yloxy)-2-oxo-2H,3H-spiro[1,3-benzoxazine-4,1′-cyclobutan]-3-yl}methyl)-2-pyridyl]amine]	50 to 500		200 to 1000
CNS(=O)(=O)Nc1nccc(CN2C(=O)Oc3cc(Oc4cccnn4)ccc3C2(C)C)c1F [Compound 32, 3-({3-fluoro-2-[(methylsulfamoyl)amino]pyridin-4-yl}methyl)-4,4-dimethyl-7-(pyridazin-3-yloxy)-3,4-dihydro-2H-1,3-benzoxazin-2-one]	5 to 50		200 to 1000
CNS(=O)(=O)Nc1nccc(CN2C(=O)Oc3cc(Oc4ncco4)cnc3[C@@H]2C)c1F (stereo in doubt) [Compound 191, 3-{[3-fluoro-2-(methylaminosulfonylamino)-4-pyridyl]methyl}-4-methyl-7-(1,3-oxazol-2-yloxy)-3,4-dihydro-2H-1-oxa-3,5-diazanaphthalen-2-one]	50 to 500		50 to 200
CNS(=O)(=O)Nc1cccc(CN2C(=O)Oc3c(ccc(Oc4cccnn4)c3F)[C@H]2C)c1F (single isomer, unassigned) [Compound 36]	5 to 50		50 to 200
CNS(=O)(=O)Nc1nccc(CN2C(=O)Oc3c(ccc(Oc4ncco4)c3F)C23CCC3)c1F [Compound 173, 8-fluoro-3-{[3-fluoro-2-(methylaminosulfonylamino)-4-pyridyl]methyl}-7-(1,3-oxazol-2-yloxy)-2H,3H-spiro[1,3-benzoxazine-4,1′-cyclobutan]-2-one]	5 to 50		< 50
CNS(=O)(=O)Nc1cccc(CN2C(=O)Oc3cc(OC(=O)N(C)C)ccc3[C@H]2C)c1F [Compound 153, 3-(2-fluoro-3-((N-methylsulfamoyl)amino)benzyl)-4-methyl-2-oxo-3,4-dihydro-2H-benzo[e][1,3]oxazin-7-yl dimethylcarbamate]	5 to 50		200 to 1000
CNS(=O)(=O)Nc1nccc(CN2C(=O)Oc3c(ccc(Oc4nccnn4)c3F)C23CCC3)c1F [Compound 177, 8-fluoro-3-{[3-fluoro-2-(methylaminosulfonylamino)-4-pyridyl]methyl}-7-(1,2,4-triazin-3-yloxy)-2H,3H-spiro[1,3-benzoxazine-4,1′-cyclobutan]-2-one]	< 5		< 50
CNS(=O)(=O)Nc1cccc(CN2C(=O)Oc3c(ccc(OC(=O)N(C)C)c3F)[C@H]2C)c1F (single isomer, unassigned) [Compound 104, (R)-8-fluoro-3-(2-fluoro-3-((N-methylsulfamoyl)amino)benzyl)-4-methyl-2-oxo-3,4-dihydro-2H-benzo[e][1,3]oxazin-7-yl dimethylcarbamate or (S)-8-fluoro-3-(2-fluoro-3-((N-methylsulfamoyl)amino)benzyl)-4-methyl-2-oxo-3,4-dihydro-2H-benzo[e][1,3]oxazin-7-yl dimethylcarbamate]	5 to 50		200 to 1000
CNS(=O)(=O)Nc1nccc(CN2C(=O)Oc3cc(Oc4cccnn4)cc(F)c3C23CCC3)c1F [Compound 171, 5-fluoro-3-{[3-fluoro-2-(methylaminosulfonylamino)-4-pyridyl]methyl}-7-(3-pyridazinyloxy)-2H,3H-spiro[1,3-benzoxazine-4,1′-cyclobutan]-2-one]	< 5		< 50
CNS(=O)(=O)Nc1nccc(CN2C(=O)Oc3cc(Oc4cccnn4)cc(F)c3C23COC3)c1F [Compound 178, 5-fluoro-3-{[3-fluoro-2-(methylaminosulfonylamino)-4-pyridyl]methyl}-7-(3-pyridazinyloxy)-2H, 3H-spiro[1,3-benzoxazine-4,3′-oxetan]-2-one]	5 to 50		200 to 1000
CNS(=O)(=O)Nc1cccc(CN2C(=O)Oc3cc(Oc4cccnn4)ccc3C23CC3)c1F [Compound 196, 3-{[2-fluoro-3-(methylaminosulfonylamino)phenyl]methyl}-7-(3-pyridazinyloxy)-2H,3H-spiro[1,3-benzoxazine-4,1′-cyclopropan]-2-one]	< 5		< 50
CN(C)S(=O)(=O)Nc1cccc(CN2C(=O)Oc3cc(Oc4cccnn4)ccc3C2(C)C)c1F [Compound 34, 3-{[3-(dimethylaminosulfonylamino)-2-fluorophenyl]methyl}-4,4-dimethyl-7-(3-pyridazinyloxy)-3,4-dihydro-2H-1,3-benzoxazin-2-one]	< 5		200 to 1000
CNS(=O)(=O)Nc1cccc(CN2C(=O)Oc3cc(Oc4ncco4)c(F)cc3C2C)c1F (single isomer, unassigned) [Compound 85, (R)-6-fluoro-3-({2-fluoro-3-(methylsulfamoyl)amino]phenyl}methyl)-4-methyl-7-(1,3-oxazol-2-yloxy)-3,4-dihydro-2H-1,3-benzoxazin-2-one or (S)-6-fluoro-3-({2-fluoro-3-(methylsulfamoyl)amino]phenyl}methyl)-4-methyl-7-(1,3-oxazol-2-yloxy)-3,4-dihydro-2H-1,3-benzoxazin-2-one]	5 to 50		200 to 1000
